Measurements: patent US20090274739A1, “METHODS AND COMPOSITIONS FOR TREATING NEOINTIMAL HYPERPLASIA” (THE TRUSTEES OF COLUMBIA UNIVERSITY IN THE CITY OF NEW YORK, priority 2006, published 2009)

Columns and labels:
[1] = system: murine femoral artery wire injury model (neointimal hyperplasia); test: Femoral artery wire injury model, morphometry of neointimal formation; type: in vivo, mouse; design: Lumen / Media / Intima / TVA (total vessel area): unit not given here
From the text: Animal Models and Drug Treatments. Wild type C57BL/6J background mice and mice deficient for leptin (C57BL/6J-Lepob; ob/ob) or the leptin receptor (C57BL/6J-m+/+Lepdb; db/db) were purchased from Charles Jackson Laboratories, Maine. Mice were obtained at ages 6-8 weeks old and average weight 15 g. Animals were fed standard rodent chow and tap water ad libitum. Procedures and animal care were approved by the Institutional Animal Care and Use Committee. Mice were subjected to femoral artery wire injury or sham injury described below 24 hr prior to starting pharmacological treatments. Sirolimus was administered by intraperitoneal injection once per day for 14 days as a suspension in 0.2% sodium carboxymethyl cellulose and 0.25% polysorbate-80; duplicate experiments were accomplished with 0.5% DMSO. Leptin or LY294002 was administered by intraperitoneal injection once per day for 14 days as a suspension in PBS. Plasma leptin levels were measured at baseline, 3, 6, and 10 hr after leptin injection using an ELISA assay (R&D). Leptin plus the vehicle used for both sirolimus and LY294002 was used as the control group for the treatment groups with sirolimus and LY294002. After the 2-week treatment, animals were processed for femoral artery morphometry.
Femoral Artery Injury Model. Endoluminal injury of bilateral femoral arteries was performed according to the method of Roque et al. with minor modification 27. […] Briefly, to denude and dilate femoral arteries, a 0.014″ angioplasty guidewire (Guidant) was passed endoluminally 3 times to the level of the aortic bifurcation. A sham protocol was performed where the arteries underwent dissection, clamping, and ligature without passage of the guidewire.
Computer-aided quantitative morphometry to measure luminal, medial, intimal, and vessel areas were performed as previously described 27 with minor modification. Mice were euthanized via CO2 asphyxiation prior to en bloc excision of hind limbs. Briefly, multiple segments of the common femoral artery at the level of injury were fixed in 10% Zinc Formalin, embedded in paraffin, sectioned at […] thickness, and subjected to Elastic-Van Gieson staining at a Columbia University Core Histology facility. In many cases, arteries underwent immunohistochemical staining for smooth muscle a-actin to highlight the media and neointima. Photomicrographs were captured on Adobe Photoshop 7.0 and transferred to Scion Image software for quantitative analysis. Specimens were analyzed by two independent operators blinded to the treatment groups. Microsoft Excel software was used to calculate the RNI values from I/M ratios in the absence and presence of pharmacological inhibitors, as detailed in the text.
Surgical Procedures: The mouse femoral artery wire injury model of was used with minor modifications (Roque M, et al., Arterioscler Thromb Vasc Biol, 2000, 20(2):335-42). Briefly, forty-two male mice were studied. Endoluminal injury to the common femoral artery was produced by either 3 passages of a 0.014″ diameter angioplasty guidewire (Guidant, Santa Clara, Calif.). […] While being viewed under a surgical microscope, a groin incision was made and the femoral artery was isolated and temporarily clamped distal to the inguinal ligament. An arteriotomy was performed and the guidewire was passed 3 times to the level of the aortic bifurcation. The artery was then ligated proximal to the arteriotomy. A sham protocol was carried out on the contralateral side where the arteries underwent dissection, temporary clamping, and ligature, without passage of the wire. The formation of the neointima was confirmed in this model as being comprised mainly of VSMCs through immunohistochemical staining of representative sections for α-smooth muscle actin via a commercial kit (Sigma).
For all treatment protocols, rapamycin was administered by intraperitoneal injection once per day, for 14 days, as a suspension in 0.2% sodium carboxymethyl cellulose and 0.25% polysorbate-80. […]

murine VSMC migration = test: VSMC migration, modified Boyden chamber; type: cell-based, mouse; settings: leptin 6 nM
Protocol: Migration of VSMCs: Migration was measured using a modified Boyden chamber as previously described (Grinspoon S, et al., J Clin Endocrinol Metab, 1996, 81(11):3861-3). The lower chambers contained PDGF (10 ng/mL), insulin (200 nmol/L), or 0.2% BSA (negative control) in DMEM. 2×10^5 cells were loaded into the top chamber. After 6 h, non-migrating cells were scraped from the upper surface of the filter, and the lower surface of the filter was stained with HEMA 3 Stain Set (Fisher Diagnostics, Middletown, Va.). The number of migrated VSMCs was determined by counting 4 fields at 200× magnification, of constant area per well. Values are expressed as the percentage of cells migrating in response to a chemo-attractant after subtracting the negative control. Experiments were performed thrice in triplicate wells.
FIG. 5 is a graph that depicts inhibition of migration of VSMCs toward insulin by rapamycin. […]
Primary VSMC were isolated from aortic explants of WT, ob/ob, or db/db mice (46). VSMC proliferation was determined using the Cell Titre Aqueous One Solution Proliferation Assay (Promega, Madison, Wis.). Migration to PDGF-BB was assessed in a modified Boyden chamber assay (47).

[2] = wire injury, leptin 0.4 mg/kg daily i.p. 14 days, mean ± SD

Leptin: recombinant leptin; hormone derived from adipose tissue, encoded by the Ob gene
intimal area and intimal:media ratio ([1]; Example 2, leptin 0.4 mg/kg/d i.p. 14 days vs vehicle): significantly increased
I/M (intima:media ratio) [1, 2]: 1.883 ± 0.140
Intima [1, 2]: 0.028 ± 0.004
Lumen [1, 2]: 0.010 ± 0.004
Media [1, 2]: 0.015 ± 0.001
TVA (total vessel area) [1, 2]: 0.053 ± 0.007
PDGF-induced migration of VSMC (murine VSMC migration; WT VSMC): enhanced
PDGF-induced migration of VSMC (murine VSMC migration; db/db VSMC): not
